Test results published in BindingDB's records for doi:10.1016/j.ejmech.2013.04.003 (Seoul National University, 2013).

How the values were obtained:
[1] = target: T1, Transient receptor potential cation channel subfamily V member 1 (Homo sapiens, UniProt Q8NER1); experiment: Antagonist activity at human TRPV1 expressed in CHOK1 cells assessed as inhibition of capsaicin-induced activity by FLIPR assay
[2] = target: T1, Transient receptor potential cation channel subfamily V member 1; experiment: Antagonist activity at human TRPV1 expressed in CHOK1 cells assessed as inhibition of pH 6 to 6.3-induced activity by FLIPR assay

T1 sequence (Q8NER1 whole entry): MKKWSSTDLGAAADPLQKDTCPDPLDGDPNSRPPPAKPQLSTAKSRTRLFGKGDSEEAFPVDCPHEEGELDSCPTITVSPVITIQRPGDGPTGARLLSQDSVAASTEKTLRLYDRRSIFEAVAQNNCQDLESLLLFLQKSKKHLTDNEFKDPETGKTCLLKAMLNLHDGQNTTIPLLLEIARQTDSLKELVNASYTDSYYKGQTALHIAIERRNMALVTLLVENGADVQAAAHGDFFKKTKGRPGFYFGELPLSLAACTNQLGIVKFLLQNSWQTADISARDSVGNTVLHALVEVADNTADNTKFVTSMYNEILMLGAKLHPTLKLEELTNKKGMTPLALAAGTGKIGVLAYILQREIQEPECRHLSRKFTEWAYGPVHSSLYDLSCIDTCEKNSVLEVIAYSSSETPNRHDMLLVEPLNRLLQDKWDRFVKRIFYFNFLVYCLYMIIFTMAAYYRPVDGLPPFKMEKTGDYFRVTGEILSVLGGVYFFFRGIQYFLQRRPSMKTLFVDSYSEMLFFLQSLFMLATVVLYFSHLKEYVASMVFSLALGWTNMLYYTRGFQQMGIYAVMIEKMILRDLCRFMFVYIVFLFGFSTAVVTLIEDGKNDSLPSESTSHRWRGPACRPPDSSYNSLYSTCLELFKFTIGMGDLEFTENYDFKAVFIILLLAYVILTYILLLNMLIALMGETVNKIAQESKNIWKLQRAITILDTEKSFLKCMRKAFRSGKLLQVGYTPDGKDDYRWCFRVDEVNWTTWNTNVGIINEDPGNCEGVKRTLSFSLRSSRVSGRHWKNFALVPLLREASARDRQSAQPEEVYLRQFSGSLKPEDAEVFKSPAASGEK

Question: What does the source list for `CC(C(=O)NCc1ccc(C(F)(F)F)nc1OCCCOc1ccccc1)c1ccc(NS(C)(=O)=O)c(F)c1` (configuration not stated)?
Answer: Ki [1]: 1.5 nM; IC50 [2]: 161 nM
